Reference: ChEMBL document CHEMBL1133962, “Bicyclic anti-VZV nucleosides: Thieno analogues retain full antiviral activity” (Bioorg Med Chem Lett, 2001)

Assays:
HEL [1] = test: Cytotoxic concentration required to inhibit growth of human embryonic lung cells (HEL); assay type: functional
HEL [2] = test: Antiviral activity was measured as effective concentration required to reduce thymidine kinase-deficient. Varicella Zoster virus (YS/R)-induced plaque formation in human embryonic lung cells; assay type: functional, cell-based
HEL [3] = test: Antiviral activity was measured as effective concentration required to reduce Varicella Zoster virus (OKA)-induced plaque formation in human embryonic lung cells; assay type: functional, cell-based
HEL [4] = test: Antiviral activity was measured as effective concentration required to reduce Varicella Zoster virus (YS)-induced plaque formation in human embryonic lung cells; assay type: functional, cell-based
HEL [5] = test: Antiviral activity was measured as effective concentration required to reduce thymidine kinase-deficient. Varicella Zoster virus (07/1)-induced plaque formation in human embryonic lung cells; assay type: functional, cell-based
HEL [6] = test: Minimal cytotoxic concentration required to alter microscopically detectable cell (of human embryonic lung cells (HEL)) morphology; assay type: functional

Question: Which results are given for `CCCCCCCCc1cc2cn([C@H]3C[C@H](O)[C@@H](CO)O3)c(=O)nc2s1`?
Answer: CC50 (HEL [1]): 53000 nM; EC50 (HEL [2]): > 5000 nM; EC50 (HEL [3]): 2 nM; EC50 (HEL [4]): 5 nM; EC50 (HEL [5]): ≥ 5000 nM; MCC (HEL [6]): 20 µM

Question: For `CCCCCCCCCCCCc1cc2cn([C@H]3C[C@H](O)[C@@H](CO)O3)c(=O)nc2s1`, which CC50 (HEL [1]) is on record?
Answer: Its CC50 is 49000 nM.

Question: And the EC50 (HEL [2])?
Answer: Its EC50 is over 5000 nM.

Question: And the EC50 (HEL [3])?
Answer: Its EC50 is 200 nM.

Question: What about the EC50 (HEL [4]) of the same molecule?
Answer: The EC50 was 300 nM.

Question: And the EC50 (HEL [5])?
Answer: Its EC50 is over 5000 nM.

Question: What about the MCC (HEL [6]) of the same molecule?
Answer: The MCC was 12 µM.

Question: With `CCCCc1cc2cn([C@H]3C[C@H](O)[C@@H](CO)O3)c(=O)nc2s1` as the molecule, how does the CC50 (HEL [1]) read?
Answer: Its CC50 is over 200000 nM.

Question: And the EC50 (HEL [2])?
Answer: The EC50 was 153000 nM.

Question: And the EC50 (HEL [3])?
Answer: The EC50 was 160 nM.

Question: What about the EC50 (HEL [4]) of the same molecule?
Answer: The EC50 was 150 nM.

Question: What about the EC50 (HEL [5]) of the same molecule?
Answer: The EC50 was at least 200000 nM.

Question: And the MCC (HEL [6])?
Answer: The MCC was at least 100 µM.

Question: What does the source list for `CCCCCCc1cc2cn([C@H]3C[C@H](O)[C@@H](CO)O3)c(=O)nc2s1`?
Answer: CC50 (HEL [1]): > 200000 nM; EC50 (HEL [2]): ≥ 50000 nM; EC50 (HEL [3]): 140 nM; EC50 (HEL [4]): 140 nM; EC50 (HEL [5]): ≥ 50000 nM; MCC (HEL [6]): 125 µM

Question: For `CCCCCCCCCCc1cc2cn([C@H]3C[C@H](O)[C@@H](CO)O3)c(=O)nc2o1`, which CC50 (HEL [1]) is on record?
Answer: The CC50 was over 50000 nM.

Question: What about the EC50 (HEL [2]) of the same molecule?
Answer: Its EC50 is over 50000 nM.

Question: And the EC50 (HEL [3])?
Answer: Its EC50 is 15 nM.

Question: What about the EC50 (HEL [4]) of the same molecule?
Answer: Its EC50 is 8 nM.

Question: And the EC50 (HEL [5])?
Answer: Its EC50 is over 50000 nM.

Question: What about the MCC (HEL [6]) of the same molecule?
Answer: The MCC was over 50 µM.

Question: For `CCCCCCCCCc1cc2cn([C@H]3C[C@H](O)[C@@H](CO)O3)c(=O)nc2s1`, which CC50 (HEL [1]) is on record?
Answer: The CC50 was over 20000 nM.

Question: What about the EC50 (HEL [2]) of the same molecule?
Answer: The EC50 was over 20000 nM.

Question: What about the EC50 (HEL [3]) of the same molecule?
Answer: The EC50 was 10 nM.

Question: And the EC50 (HEL [4])?
Answer: The EC50 was 10 nM.

Question: What about the EC50 (HEL [5]) of the same molecule?
Answer: The EC50 was over 20000 nM.

Question: What about the MCC (HEL [6]) of the same molecule?
Answer: Its MCC is over 20 µM.

Question: Which results are given for `CCCCCCCCCCc1cc2cn([C@H]3C[C@H](O)[C@@H](CO)O3)c(=O)nc2s1`?
Answer: CC50 (HEL [1]): 54000 nM; EC50 (HEL [2]): > 5000 nM; EC50 (HEL [3]): 30 nM; EC50 (HEL [4]): 60 nM; EC50 (HEL [5]): > 5000 nM; MCC (HEL [6]): 20 µM

Question: For `Nc1nc2c(ncn2COCCO)c(=O)[nH]1` [ACYCLOVIR], which CC50 (HEL [1]) is on record?
Answer: The CC50 was over 400000 nM.

Question: What about the EC50 (HEL [2]) of the same molecule?
Answer: The EC50 was 44000 nM.

Question: What about the EC50 (HEL [3]) of the same molecule?
Answer: The EC50 was 1100 nM.

Question: What about the EC50 (HEL [4]) of the same molecule?
Answer: Its EC50 is 1500 nM.

Question: What about the EC50 (HEL [5]) of the same molecule?
Answer: The EC50 was 40000 nM.

Question: What about the MCC (HEL [6]) of the same molecule?
Answer: Its MCC is over 200 µM.
